Where two headings read alike, the source gives them in different places.
Tested on: phosphorylation of AKT in HCC70 cells
Assay: Cellular assay: phosphorylation of AKT in HCC70 cells (western blotting)
Format: cell-based
Conditions: Homo sapiens, HCC70, 1 h, HCC70 cells, compound 500 nM, 60 min, inhibition of Akt activity from band intensities
Protocol: Cellular activity of PI3Kβ inhibitors was determined by quantifying the phosphorylation of AKT in HCC70 cells. AKT phosphorylated at Ser473 and Thr308 were measured using western blotting and specific primary antibodies from Cell Signaling (CST), Danvers, MA. On day 1, HCC70 cells (ATCC #CRL-2315) were seeded into Falcon 12-well cell Culture Plate (Corning #353043) at 100,000 cells per well, in 1 ml complete culture medium (RPMI-1640, GIBCO #11875093) containing 10% heat inactivated FBS (GIBCO #10438026), 1% Pen-Strep (GIBCO #15140122) and incubated at 37° AC, 5% CO2 overnight. On day 2, compound (500 nM) or DMSO (0.1%, Sigma Aldrich #8418) was added and cells were further incubated for 60 min at 37° AC, 5% CO2 in a total volume of 1 ml fresh medium.
At the end of the cell treatment period, media were removed by aspiration and adherent cells were lysed in 100 uL RIPA buffer (Sigma Aldrich #R0278). Equal volume (15 uL) of proteins was resolved by SDS-PAGE and transferred to PVDF (Millipore #IPFL00010) membrane for immunoblot analysis. Primary antibodies to the following proteins were used for immunoblotting: phosphor-AKT (Ser473) (CST #4060), phosphor-AKT (Thr308) (CST #2965), total AKT (CST #9272). Secondary goat anti-rabbit IgG fluorophore conjugated antibody (Invitrogen #A21109) was used to visualize the indicated proteins on an Odyssey CLx imaging system (Li-Cor). Quantification of band intensities was performed using Odyssey 3.0 software. Inhibition of Akt activity was calculated by band intensities using the formula: […]
Index was evaluated by % of AI. Data represent Index+(20˜60%), ++(60%˜80%), +++(80%˜90%), and ++++>90%.

[1] = read-out: Index of AI (HCC70) p-AKT Thr 308
[2] = read-out: Index of AI (HCC70) p-AKT ser 473

## CC(Nc1cc(F)cc(F)c1)c1cc(NC2=NC(C)(C)CO2)cn2c(=O)cc(N3CCOCC3)nc12 (stereo not drawn) [Compound 47, 9-(1-((3,5-difluorophenyl)amino)ethyl)-7-((4,4-dimethyl-4,5-dihydrooxazol-2-yl)amino)-2-morpholino-4H-pyrido[1,2-a]pyrimidin-4-one]
[1]
  inhibition at 0.5 µM: > 90%
[2]
  inhibition at 0.5 µM: > 90%

## Cc1cc(CN2CCc3c(F)cccc32)c2nc(N3CCOCC3)cc(=O)n2c1 [Compound 52, 9-[(4-fluoroindolin-1-yl)methyl]-7-methyl-2-morpholino-pyrido[1,2-a]pyrimidin-4-one]
[1]
  inhibition at 0.5 µM: 60 to 80%
[2]
  inhibition at 0.5 µM: 60 to 80%

## Cc1cc(CN2c3cccc(F)c3CC2C)c2nc(N3CCOCC3)cc(=O)n2c1 (stereo not drawn) [Compound 53, 9-((4-fluoro-2-methylindolin-1-yl)methyl)-7-methyl-2-morpholino-4H-pyrido[1,2-a]pyrimidin-4-one]
[1]
  inhibition at 0.5 µM: 60 to 80%
[2]
  inhibition at 0.5 µM: 60 to 80%

## Cc1cc(CN2CCc3c(F)cc(F)cc32)c2nc(N3CCOCC3)cc(=O)n2c1 [Compound 54, 9-((4,6-difluoroindolin-1-yl)methyl)-7-methyl-2-morpholino-4H-pyrido[1,2-a]pyrimidin-4-one]
[1]
  inhibition at 0.5 µM: 20 to 60%
[2]
  inhibition at 0.5 µM: 20 to 60%

## Cc1cc(CN2c3cc(F)cc(F)c3CC2C)c2nc(N3CCOCC3)cc(=O)n2c1 (stereo not drawn) [Compound 55, 9-((4,6-difluoro-2-methylindolin-1-yl)methyl)-7-methyl-2-morpholino-4H-pyrido[1,2-a]pyrimidin-4-one]
[1]
  inhibition at 0.5 µM: 20 to 60%
[2]
  inhibition at 0.5 µM: 20 to 60%

## Cc1cc(CN2CCc3cc(F)ccc32)c2nc(N3CCOCC3)cc(=O)n2c1 [Compound 56, 9-((5-fluoroindolin-1-yl)methyl)-7-methyl-2-morpholino-4H-pyrido[1,2-a]pyrimidin-4-one]
[1]
  inhibition at 0.5 µM: 60 to 80%
[2]
  inhibition at 0.5 µM: 60 to 80%

## Cc1cc(CN2c3ccccc3CC2C)c2nc(N3CCOCC3)cc(=O)n2c1 (stereo not drawn) [Compound 57, 7-methyl-9-((2-methylindolin-1-yl)methyl)-2-morpholino-4H-pyrido[1,2-a]pyrimidin-4-one]
[1]
  inhibition at 0.5 µM: 60 to 80%
[2]
  inhibition at 0.5 µM: 60 to 80%

## CC(Nc1cc(F)cc(F)c1)c1cc(Cc2nnc[nH]2)cc2c(=O)cc(N3CCOCC3)oc12 (stereo not drawn) [Compound 60, 6-((4H-1,2,4-triazol-3-yl)methyl)-8-(1-((3,5-difluorophenyl)amino)ethyl)-2-morpholino-4H-chromen-4-one]
[1]
  inhibition at 0.5 µM: 80 to 90%
[2]
  inhibition at 0.5 µM: 80 to 90%

## CC(Nc1cc(F)cc(F)c1)c1cc(-c2c[nH][nH]c2=O)cc2c(=O)cc(N3CCOCC3)oc12 (stereo not drawn) [Compound 61, 4-(8-(1-((3,5-difluorophenyl)amino)ethyl)-2-morpholino-4-oxo-4H-chromen-6-yl)-1H-pyrazol-3(2H)-one]
[1]
  inhibition at 0.5 µM: 20 to 60%
[2]
  inhibition at 0.5 µM: 20 to 60%

## CN(C)C(=O)c1cc(CN2CCc3c(F)ccc(Cl)c32)c2oc(N3CCOCC3)cc(=O)c2c1 [Compound 62, 8-((7-chloro-4-fluoroindolin-1-yl)methyl)-N,N-dimethyl-2-morpholino-4-oxo-4H-chromene-6-carboxamide]
[1]
  inhibition at 0.5 µM: 80 to 90%
[2]
  inhibition at 0.5 µM: 80 to 90%

## CC1Cc2c(F)cc(F)cc2N1Cc1cc(C(=O)N(C)C)cc2c(=O)cc(N3CCOCC3)oc12 (stereo not drawn) [Compound 63, 8-((4,6-difluoro-2-methylindolin-1-yl)methyl)-N,N-dimethyl-2-morpholino-4-oxo-4H-chromene-6-carboxamide]
[1]
  inhibition at 0.5 µM: > 90%
[2]
  inhibition at 0.5 µM: > 90%

## CN(C)C(=O)c1cc(CN2c3cc(F)cc(F)c3CC2(C)C)c2oc(N3CCOCC3)cc(=O)c2c1 [Compound 66, 8-((4,6-difluoro-2,2-dimethylindolin-1-yl)methyl)-N,N-dimethyl-2-morpholino-4-oxo-4H-chromene-6-carboxamide]
[1]
  inhibition at 0.5 µM: 80 to 90%
[2]
  inhibition at 0.5 µM: 80 to 90%

## CN(C)C(=O)c1cc(CN2CCc3ccccc32)c2oc(N3CCOCC3)cc(=O)c2c1 [Compound 67, 8-(indolin-1-ylmethyl)-N,N-dimethyl-2-morpholino-4-oxo-4H-chromene-6-carboxamide]
[1]
  inhibition at 0.5 µM: 60 to 80%
[2]
  inhibition at 0.5 µM: 60 to 80%

## CN(C)C(=O)c1cc(CN2CCc3c(F)cccc32)c2oc(N3CCOCC3)cc(=O)c2c1 [Compound 68, 8-((4-fluoroindolin-1-yl)methyl)-N,N-dimethyl-2-morpholino-4-oxo-4H-chromene-6-carboxamide]
[1]
  inhibition at 0.5 µM: > 90%
[2]
  inhibition at 0.5 µM: > 90%

## CN(C)C(=O)c1cc(CN2CCc3ccc(F)cc32)c2oc(N3CCOCC3)cc(=O)c2c1 [Compound 70, 8-((6-fluoroindolin-1-yl)methyl)-N,N-dimethyl-2-morpholino-4-oxo-4H-chromene-6-carboxamide]
[1]
  inhibition at 0.5 µM: 80 to 90%
[2]
  inhibition at 0.5 µM: 80 to 90%

## CN(C)C(=O)c1cc(CN2CCc3c(Cl)cccc32)c2oc(N3CCOCC3)cc(=O)c2c1 [Compound 71, 8-((4-chloroindolin-1-yl)methyl)-N,N-dimethyl-2-morpholino-4-oxo-4H-chromene-6-carboxamide]
[1]
  inhibition at 0.5 µM: > 90%
[2]
  inhibition at 0.5 µM: > 90%

## COc1cccc2c1N(Cc1cc(C(=O)N(C)C)cc3c(=O)cc(N4CCOCC4)oc13)CC2 [Compound 72, 8-((7-methoxyindolin-1-yl)methyl)-N,N-dimethyl-2-morpholino-4-oxo-4H-chromene-6-carboxamide]
[1]
  inhibition at 0.5 µM: 20 to 60%
[2]
  inhibition at 0.5 µM: 20 to 60%

## CCN(CC)C(=O)c1cc(CN2CCc3c(F)cc(F)cc32)c2oc(N3CCOCC3)cc(=O)c2c1 [Compound 78, 8-((4,6-difluoroindolin-1-yl)methyl)-N,N-diethyl-2-morpholino-4-oxo-4H-chromene-6-carboxamide]
[1]
  inhibition at 0.5 µM: 80 to 90%
[2]
  inhibition at 0.5 µM: 80 to 90%

## CCN(C)C(=O)c1cc(CN2CCc3c(F)cc(F)cc32)c2oc(N3CCOCC3)cc(=O)c2c1 [Compound 79, 8-((4,6-difluoroindolin-1-yl)methyl)-N-ethyl-N-methyl-2-morpholino-4-oxo-4H-chromene-6-carboxamide]
[1]
  inhibition at 0.5 µM: 80 to 90%
[2]
  inhibition at 0.5 µM: 80 to 90%

## CCNC(=O)c1cc(CN2CCc3c(F)cc(F)cc32)c2oc(N3CCOCC3)cc(=O)c2c1 [Compound 80, 8-((4,6-difluoroindolin-1-yl)methyl)-N-ethyl-2-morpholino-4-oxo-4H-chromene-6-carboxamide]
[1]
  inhibition at 0.5 µM: 60 to 80%
[2]
  inhibition at 0.5 µM: 60 to 80%

## CC(C)NC(=O)c1cc(CN2CCc3c(F)cc(F)cc32)c2oc(N3CCOCC3)cc(=O)c2c1 [Compound 81, 8-((4,6-difluoroindolin-1-yl)methyl)-N-isopropyl-2-morpholino-4-oxo-4H-chromene-6-carboxamide]
[1]
  inhibition at 0.5 µM: 60 to 80%
[2]
  inhibition at 0.5 µM: 60 to 80%

## CN1CCC(NC(=O)c2cc(CN3CCc4c(F)cc(F)cc43)c3oc(N4CCOCC4)cc(=O)c3c2)CC1 [Compound 82, 8-((4,6-difluoroindolin-1-yl)methyl)-N-(1-methylpiperidin-4-yl)-2-morpholino-4-oxo-4H-chromene-6-carboxamide]
[1]
  inhibition at 0.5 µM: 80 to 90%
[2]
  inhibition at 0.5 µM: 80 to 90%

## O=C(NC1CCOCC1)c1cc(CN2CCc3c(F)cc(F)cc32)c2oc(N3CCOCC3)cc(=O)c2c1 [Compound 83, 8-((4,6-difluoroindolin-1-yl)methyl)-2-morpholino-4-oxo-N-(tetrahydro-2H-pyran-4-yl)-4H-chromene-6-carboxamide]
[1]
  inhibition at 0.5 µM: 60 to 80%
[2]
  inhibition at 0.5 µM: 60 to 80%

## CC(C)(O)CNC(=O)c1cc(CN2CCc3c(F)cc(F)cc32)c2oc(N3CCOCC3)cc(=O)c2c1 [Compound 84, 8-((4,6-difluoroindolin-1-yl)methyl)-N-(2-hydroxy-2-methylpropyl)-2-morpholino-4-oxo-4H-chromene-6-carboxamide]
[1]
  inhibition at 0.5 µM: 80 to 90%
[2]
  inhibition at 0.5 µM: 80 to 90%

## CC(C)CNC(=O)c1cc(CN2CCc3c(F)cc(F)cc32)c2oc(N3CCOCC3)cc(=O)c2c1 [Compound 85, 8-((4,6-difluoroindolin-1-yl)methyl)-N-isobutyl-2-morpholino-4-oxo-4H-chromene-6-carboxamide]
[1]
  inhibition at 0.5 µM: 60 to 80%
[2]
  inhibition at 0.5 µM: 60 to 80%

## CNC(=O)c1cc(CN2CCc3c(F)cc(F)cc32)c2oc(N3CCOCC3)cc(=O)c2c1 [Compound 86, 8-((4,6-difluoroindolin-1-yl)methyl)-N-methyl-2-morpholino-4-oxo-4H-chromene-6-carboxamide]
[1]
  inhibition at 0.5 µM: > 90%
[2]
  inhibition at 0.5 µM: > 90%

## CC1(C)CN(C(=O)c2cc(CN3CCc4c(F)cc(F)cc43)c3oc(N4CCOCC4)cc(=O)c3c2)C1 [Compound 87, 8-((4,6-difluoroindolin-1-yl)methyl)-6-(3,3-dimethylazetidine-1-carbonyl)-2-morpholino-4H-chromen-4-one]
[1]
  inhibition at 0.5 µM: 60 to 80%
[2]
  inhibition at 0.5 µM: 60 to 80%
